Laboratory results as given in patent publication US8431378B2, “Aminotransferase, gene encoding the same, and methods of using them” (Kaneka Corporation, priority 2005, dated 2013).
“Also recorded” adds a separate entry of the source.

How the values were obtained:
[1] = tested on: purified enzyme MTA (aminotransferase); assay: Specificity for amino donor, pyruvic acid as acceptor, dabsylated alanine quantified (Example 4); format: biochemical, Pseudomonas fluorescens KNK08-18; conditions: for Amino group transfer activity as amino donor (in words): acceptor pyruvic acid; for Relative Activity (%): amino donor varied, 14 mM, acceptor 14 mM pyruvic acid, pH 7.5, 30° C., 1 hour, activity with (S)-α-phenethylamine is 100
Method: (§1) The amino group transfer activity measurement is carried out as follows: Firstly, 20 μL of a purified enzyme solution having a protein concentration of 0.2 mg/mL is added to 380 μL of a substrate solution having the following composition. After carrying out reaction at 30° C. for 1 hour therein, 20 μL of 3N hydrochloric acid is added therein to stop the reaction. Then, into 20 μL of the resultant reaction mixture, a 0.2M sodium carbonate aqueous solution of 80 μL and an acetone solution of 200 μL containing dabsyl chloride by 3.3 mg/mL are added. Then, the resultant mixture is reacted at 70° C. for 10 min. After 20 μL of acetic acid is added therein with stirring. The reaction mixture thus obtained is analyzed by high-performance liquid chromatography thereby to quantitatively analyze dabsylated alanine.
as §1, with “purified enzyme obtained in Example 1 was analyzed in terms of its reactivity to typical substrates of ω-amino acid transaminase.” for “amino group transfer activity measurement is carried out as follows:”, “was” for “is”, “[…]” for “380 μL”, “were” for “are”, “alanine. Results of the analysis are shown in Table 2, which the amino group transfer activities are shown as relative activities where the activity with (S)-α-phenethylamine as the amino donor is 100.” for “alanine.”
(§2) [Substrate Solution Composition]
(§3) Pyridoxal phosphate 0.02 mM
(§4) Potassium Phosphate Buffer (pH 7.5) 0.1M
(§5) [High-Performance Liquid Chromatography Analysis Conditions]
(§6) Column: Deverosil ODS-HG-3 (Nomura Chemical Co., Ltd.)
(§7) Carrier: Acetonitrile/0.045M acetate buffer (pH 4.1)=35/65 (by volume)

MTA (present invention) = assay: Substrate specificity, comparison with ω-amino acid transaminase (Example 7), Enzyme A; format: biochemical, Pseudomonas fluorescens KNK08-18; conditions: for Reactivity as amino donor (in words): Enzyme A (MTA), receptor pyruvic acid or 2-ketoglutaric acid; for Relative activity, Enzyme A: donor 14 mM, activity with (S)-α-phenethylamine is 100
Method: The purified enzyme obtained in Example 1 was analyzed in terms of its reactivity to typical substrates of ω-amino acid transaminase. Firstly, 20 μL of a purified enzyme solution having a protein concentration of 0.2 mg/mL was added to 380 μL of a substrate solution having the following composition. After carrying out reaction at 30° C. for 1 hour therein, 20 μL of 3N hydrochloric acid was added therein to stop the reaction. Then, into 20 μL of the resultant reaction mixture, a 0.2M sodium carbonate aqueous solution of 80 μL and an acetone solution of 200 μL containing dabsyl chloride by 3.3 mg/mL were added. Then, the resultant mixture was reacted at 70° C. for 10 min. After 20 μL of acetic acid was added therein with stirring. The reaction mixture thus obtained was analyzed by high-performance liquid chromatography thereby to quantitatively analyze dabsylated alanine or […]. Results of the analysis are shown in Table 5, in which the relative activities are shown where the activity with (S)-α-phenethylamine as the amino donor is 100. In Table 5, the values of activities of ω-amino acid:pyruvic acid transaminase and 4-amino butyric acid: 2-ketoglutaric acid transaminase are from the literatures “Agric. Biol. Chem. 41, 1701-1706 (1977), Arch. Biochem. Biophys. 200, 156-164 (1980)”.
as §2
Pyruvic acid or 2-ketoglutaric acid 14 mM
as §3, §4, §5, §6, §7

[2] = biological target: T1, ω-Amino Acid: Pyruvic Acid Transaminase (Pseudomonas putida, UniProt P28269); conditions: amino group receptor pyruvic acid; values from the literature; cited from earlier work
T1 sequence (P28269 1-449): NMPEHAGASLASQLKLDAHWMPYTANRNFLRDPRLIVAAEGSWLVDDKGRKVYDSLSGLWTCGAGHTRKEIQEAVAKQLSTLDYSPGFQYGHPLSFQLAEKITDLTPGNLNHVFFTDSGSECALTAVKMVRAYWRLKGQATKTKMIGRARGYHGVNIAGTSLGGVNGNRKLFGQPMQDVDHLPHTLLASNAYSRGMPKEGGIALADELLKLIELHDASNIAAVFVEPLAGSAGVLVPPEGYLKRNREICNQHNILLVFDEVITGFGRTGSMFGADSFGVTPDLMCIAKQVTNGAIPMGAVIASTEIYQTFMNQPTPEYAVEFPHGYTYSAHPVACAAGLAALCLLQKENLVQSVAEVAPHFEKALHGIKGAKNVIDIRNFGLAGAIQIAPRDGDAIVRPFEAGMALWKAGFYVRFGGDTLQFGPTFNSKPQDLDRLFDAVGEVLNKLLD

[3] = tested on: 4-Aminobutylic Acid: 2-Ketoglutaric Acid Transaminase; conditions: amino group receptor 2-ketoglutaric acid; values from the literature; cited from earlier work
[4] = tested on: purified enzyme MTA (aminotransferase); assay: Specificity for amino donor, 7-methoxy-2-tetralone as amino acceptor (Example 3); format: biochemical, Pseudomonas fluorescens KNK08-18; conditions: amino donor varied, 14 mM (racemic 28 mM); acceptor 14 mM 7-methoxy-2-tetralone; 30° C., 1 hour; activity with (S)-α-phenethylamine is 100
Method: In 20 μL of the purified Enzyme, 380 μL of a 0.1M potassium phosphate buffer containing 14 mM of 7-methoxy-2-tetralone and 14 mM (in case of the racemic amine compound, 28 mM)) of an amine compound of various type was added. After the mixture was reacted at 30° C. for 1 hour, 20 μL of 3N hydrochloric acid was added therein to stop the reaction. The reaction solution thus obtained was analyzed via high-performance liquid chromatography so as to quantitatively analyze 7-methoxy-2-aminotetralin thus obtained. Thereby, the amino group transfer activities with the various amino compounds were analyzed.
[Analysis Conditions of High-Performance Liquid Chromatography]
• Column: Cosmosil 5C8-MS (Nacalai Tesque Inc.) • Carrier: 30 mM potassium phosphate buffer (pH 2.5)/acetonitrile/methanol=4/1/1 (by volume) • Flow Rate: 0.9 mL/min • Detection: 254 nm

[5] = amino group receptor 2-ketoglutaric acid 14 mM
[6] = amino group receptor pyruvic acid 14 mM

SMILES | Amino group transfer activity as amino donor (in words) [1] | Relative Activity (%) [1] | Reactivity as amino donor (in words) (MTA (present invention)) | Relative activity, Enzyme A (MTA (present invention); [5]) | Relative activity, Enzyme A (MTA (present invention); [6]) | Relative activity, Enzyme B [2] | Relative activity, Enzyme C [3] | Relative Activity (%) [4] | Amino group transfer activity as amino donor (in words) ([1]; listed as Valanine)
NCCS(=O)(=O)O [Taurine] | no activity; also recorded: substantially inactive | 0% | not reactive | 0 | 0 | 132 | 8 |  | 
NCCC(=O)O [β-alanine] | substantially inactive | 0% | not reactive | 0 | 0 | 100 | 0 | 0% | no activity
